Source: patent US5428059A, “Benzopyran derivatives and an anti-allergic agent possessing the same as the active ingredient” (Dainippon Ink & Chemicals, Inc., priority 1991, dated 1995)

System: Hartley-type male guinea pigs
Assay: Guinea Pig Homogeneous Skin Passive Anaphylaxis Assay (PCA reaction)
Type: in vivo, guinea pig (Hartley-type)
Conditions: 10 mg/kg oral, 48 h after sensitization
Method: In order to confirm the anti-allergic action of the compounds according to the present invention, as an anti-allergic action confirmation assay, the widely used Guinea Pig Homogeneous Skin Passive Anaphylaxis Assay (PCA Reaction Assay; Passive Cutaneous Anaphylaxis Reaction Assay) was carried out. The assay method used will be explained in the following.
Assay method: Hartley-type male guinea pigs (body weight: 250~300 g) were sensitized by the following procedure; a mixture of 2 μg of egg albumin (OVA) and 5 μg of aluminium hydroxide gel was administered intraperitoneally 3 times every 2 weeks, and the anti-OVA blood serum was manufactured.
The anti-blood serum obtained was then diluted 120 times using physiological saline solution, and then to groups each containing 6 shaved guinea pigs, was injected at a quantity of 0.05 ml respectively, into two positions in the back portion, inside the skin of each animal.
After the 48th hour of sensitization, 10 mg/kg of the test substance to be tested was orally administered, following which a mixture of 2 mg OVA and 5 mg of Evans Blue was administered by intraveneous injection into the hind leg, triggering the anaphylaxis reaction. As the positive control, Tranilast, a well known anti-allergic agent, was used, and in the same manner as the substances to be tested, 100 mg/kg of it was orally administered after the 48th hour of sensitization.
30 minutes after triggering the reaction, the animals were bled to death under ether anesthesia, and their back portion skins were peeled off. The long and short diameters of pigment leakage spots on the interior surface of the skins were measured, and the product of these (mm^2) were entered into formula 1 as "pigment leakage amount", from which the allergic reaction inhibitory index wins calculated. [formula]
I: Allergic reaction inhibitory index (%)
A: Pigment leakage amount of solvent control group
B: Pigment leakage amount of test substance group
C: Pigment leakage amount of […]

With `CCCCOc1c(O)c2c(OC)cccc2oc1=O` [Compound 225, 3-(butoxy)-4-hydroxy-5-(methoxy)-2H-1-benzopyran-2-one] the “Allergic reaction inhibitory index (%)” value was 35%.

Same assay, conditions: Cavia porcellus, 10 mg/kg oral, 48 h after sensitization, read-out: Allergic reaction inhibitory index (%)

First: COc1cccc2oc(=O)c(OC/C=C(\C)CCC=C(C)C)c(OC/C=C(\C)CCC=C(C)C)c12 [Compound 209, 3,4-(digeranyloxy)-5-(methoxy)-2H-1-benzopyran-2-one]
Second: CC(C)=CCC/C(C)=C/COc1cccc2oc(=O)c(O)c(OC/C=C(\C)CCC=C(C)C)c12 [Compound 254, 3-hydroxy-4,5-(digeranyloxy)-2H-1-benzopyran-2-one]
The inhibition in vivo at 10 mg/kg of the first is higher: 33% for the first, 30% for the second.

Going from `COc1c(O)c2c(OC/C=C(\C)CCC=C(C)C)cccc2oc1=O` [Compound 248, 3-(methoxy)-4-hydroxy-5-(geranyloxy)-2H-1-benzopyran-2-one] to `COc1c(OC/C=C(\C)CCC=C(C)C)c2c(OC)cccc2oc1=O` [Compound 208, 3,5-(dimethoxy)-4-(geranyloxy)-2H-1-benzopyran-2-one], the inhibition in vivo at 10 mg/kg falls from 35% to 32%.

Going from `CCCCCCCCCCOc1cccc2c(OC(C)=O)c(O)c(=O)oc12` [Compound 145, 3-hydroxy-4-(acetoxy)-8-(decyloxy)-2H-1-benzopyran-2-one] to `CCCCCCCCCCOc1cccc2c(OCCCC)c(O)c(=O)oc12` [Compound 148, 3-hydroxy-4-(butoxy)-8-(decyloxy)-2H-1-benzopyran-2-one], the inhibition in vivo at 10 mg/kg falls from 32% to 31%.

Going from `CC(C)=CCC/C(C)=C/COc1ccc2c(OC/C=C(\C)CCC=C(C)C)c(OC(=O)c3ccccc3)c(=O)oc2c1` [Compound 86, 3-(benzoyloxy)-4,7-(digeranyloxy)-2H-1-benzopyran-2-one] to `CC(=O)Oc1c(OC(=O)c2ccccc2)c(=O)oc2cc(OC/C=C(\C)CCC=C(C)C)ccc12` [Compound 77, 3-(benzoyloxy)-4-(acetoxy)-7-(geranyloxy)-2H-1-benzopyran-2-one], the inhibition in vivo at 10 mg/kg rises from 30% to 31%.

Compared with `CC(C)=CCC/C(C)=C/COc1c(O)c(=O)oc2cc(OC(C)C)ccc12` [Compound 54, 3-hydroxy-4-(geranyloxy)-7-(isopropoxy)-2H-1-benzopyran-2-one], `COc1ccc2c(OC/C=C(\C)CCC=C(C)C)c(O)c(=O)oc2c1` [Compound 38, 3-hydroxy-4-(geranyloxy)-7-(methoxy)-2H-1-benzopyran-2-one] is lower in inhibition in vivo at 10 mg/kg: 32% for the first, 31% for the second.

Going from `CC(C)=CCC/C(C)=C/COc1c(O)c(=O)oc2c(OC/C=C(\C)CCC=C(C)C)cccc12` [Compound 168, 3-hydroxy-4,8-(digeranyloxy)-2H-1-benzopyran-2-one] to `CC(C)=CCC/C(C)=C/COc1c(O)c2cccc(OC/C=C(\C)CCC=C(C)C)c2oc1=O` [Compound 167, 3,8-(digeranyloxy)-4-hydroxy-2H-1-benzopyran-2-one], the inhibition in vivo at 10 mg/kg falls from 34% to 30%.

First: CCCCCCCCCCOc1c(OC)c(=O)oc2cc(OC(C)C)ccc12 [Compound 50, 3-(methoxy)-4-(decyloxy)-7-(isopropoxy)-2H-1-benzopyran-2-one]
Second: CCCCCCCCCCOc1c(OC(C)C)c2ccc(OC/C=C(\C)CCC=C(C)C)cc2oc1=O [Compound 80, 3-(decyloxy)-4-(isopropoxy)-7-(geranyloxy)-2H-1-benzopyran-2-one]
The inhibition in vivo at 10 mg/kg of the first is higher: 33% for the first, 30% for the second.

Going from `CC(C)=CCC/C(C)=C/COc1c(O)c2ccc(O)cc2oc1=O` [Compound 19, 3-(geranyloxy)-4,7-(dihydroxy)-2H-1-benzopyran-2-one] to `COc1ccc2c(O)c(OC/C=C(\C)CCC=C(C)C)c(=O)oc2c1` [Compound 37, 3-(geranyloxy)-4-hydroxy-7-(methoxy)-2H-1-benzopyran-2-one], the inhibition in vivo at 10 mg/kg falls from 42% to 40%.

Going from `CCCCCCCCCCOc1ccc2c(OC/C=C(\C)CCC=C(C)C)c(O)c(=O)oc2c1` [Compound 68, 3-hydroxy-4-(geranyloxy)-7-(decyloxy)-2H-1-benzopyran-2-one] to `CCCCCCCCCCOc1cccc2c(OC(C)=O)c(OC/C=C(\C)CCC=C(C)C)c(=O)oc12` [Compound 153, 3-(geranyloxy)-4-(acetoxy)-8-(decyloxy)-2H-1-benzopyran-2-one], the inhibition in vivo at 10 mg/kg falls from 32% to 30%.

`CCCCCCCCCCOc1ccc2oc(=O)c(O)c(O)c2c1` [Compound 273, 3,4-(dihydroxy)-6-(decyloxy)-2H-1-benzopyran-2-one] and `CCCCCCCCCCOc1ccc2oc(=O)c(OC(C)=O)c(O)c2c1` [Compound 279, 3-(acetoxy)-4-(hydroxy)-6-(decyloxy)-2H-1-benzopyran-2-one] are the same in inhibition in vivo at 10 mg/kg: 30% for the first, 30% for the second.

First: CCCCCCCCCCOc1cccc2c(OC(=O)c3ccccc3)c(OC)c(=O)oc12 [Compound 150, 3-(methoxy)-4-(benzoyloxy)-8-(decyloxy)-2H-1-benzopyran-2-one]
Second: CCCCCCCCCCOc1cccc2c(O)c(OC(=O)c3ccccc3)c(=O)oc12 [Compound 143, 3-(benzoyloxy)-4-hydroxy-8-(decyloxy)-2H-1-benzopyran-2-one]
The inhibition in vivo at 10 mg/kg of the first is higher: 34% for the first, 30% for the second.

Going from `COc1c(O)c(=O)oc2cc(OC(C)C)ccc12` [Compound 49, 3-hydroxy-4-(methoxy)-7-(isopropoxy)-2H-1-benzopyran-2-one] to `CC(C)Oc1c(O)c2ccc(O)cc2oc1=O` [Compound 15, 3-(isopropoxy)-4,7-(dihydroxy)-2H-1-benzopyran-2-one], the inhibition in vivo at 10 mg/kg rises from 36% to 41%.

Going from `COc1c(O)c2ccc(O)cc2oc1=O` [Compound 14, 3-(methoxy)-4,7-(dihydroxy)-2H-1-benzopyran-2-one] to `COc1c(O)c2cc(O)ccc2oc1=O` [Compound 265, 3-(methoxy)-4,6-(dihydroxy)-2H-1-benzopyran-2-one], the inhibition in vivo at 10 mg/kg falls from 47% to 37%.

First: COc1c(OC/C=C(\C)CCC=C(C)C)c2c(OC(C)C)cccc2oc1=O [Compound 222, 3-(methoxy)-4-(geranyloxy)-5-(isopropoxy)-2H-1-benzopyran-2-one]
Second: CC(C)=CCC/C(C)=C/COc1cccc2oc(=O)c(OC(=O)c3ccccc3)c(OC(C)C)c12 [Compound 251, 3-(benzoyloxy)-4-(isopropoxy)-5-(geranyloxy)-2H-1-benzopyran-2-one]
The inhibition in vivo at 10 mg/kg of the first is higher: 32% for the first, 30% for the second.

Compared with `COc1ccc2c(O)c(OC(=O)c3ccccc3)c(=O)oc2c1` [Compound 27, 3-(benzoyloxy)-4-hydroxy-7-(methoxy)-2H-1-benzopyran-2-one], `CC(=O)Oc1c(OC(=O)c2ccccc2)c(=O)oc2cccc(O)c12` [Compound 180, 3-(benzoyloxy)-4-(acetoxy)-5-hydroxy-2H-1-benzopyran-2-one] is lower in inhibition in vivo at 10 mg/kg: 40% for the first, 30% for the second.

Going from `COc1cccc2oc(=O)c(O)c(OC(C)=O)c12` [Compound 196, 3-hydroxy-4-(acetoxy)-5-(methoxy)-2H-1-benzopyran-2-one] to `CC(C)Oc1cccc2c(O)c(O)c(=O)oc12` [Compound 130, 3,4-(dihydroxy)-8-(isopropoxy)-2H-1-benzopyran-2-one], the inhibition in vivo at 10 mg/kg rises from 33% to 39%.

Going from `CCCCOc1c(OC(=O)c2ccccc2)c(=O)oc2cccc(O)c12` [Compound 224, 3-(benzoyloxy)-4-(butoxy)-5-hydroxy-2H-1-benzopyran-2-one] to `CCCCCCCCCCOc1c(OC(=O)c2ccccc2)c2cccc(OC(C)C)c2oc1=O` [Compound 137, 3-(decyloxy)-4-(benzoyloxy)-8-(isopropoxy)-2H-1-benzopyran-2-one], the inhibition in vivo at 10 mg/kg rises from 30% to 32%.

First: COc1c(OC/C=C(\C)CCC=C(C)C)c(=O)oc2c(O)cccc12 [Compound 107, 3-(geranyloxy)-4-(methoxy)-8-hydroxy-2H-1-benzopyran-2-one]
Second: CC(C)=CCC/C(C)=C/COc1c(OC(C)C)c(=O)oc2c(OC/C=C(\C)CCC=C(C)C)cccc12 [Compound 172, 3-(isopropoxy)-4,8-(digeranyloxy)-2H-1-benzopyran-2-one]
The inhibition in vivo at 10 mg/kg of the first is higher: 33% for the first, 30% for the second.

Going from `CCCCCCCCCCOc1c(O)c(=O)oc2cccc(O)c12` [Compound 183, 3,5-(dihydroxy)-4-(decyloxy)-2H-1-benzopyran-2-one] to `CCCCCCCCCCOc1c(OC)c(=O)oc2cccc(O)c12` [Compound 184, 3-(methoxy)-4-(decyloxy)-5-hydroxy-2H-1-benzopyran-2-one], the inhibition in vivo at 10 mg/kg rises from 30% to 33%.

Compared with `CC(C)=CCC/C(C)=C/COc1c(O)c2c(OC/C=C(\C)CCC=C(C)C)cccc2oc1=O` [Compound 253, 3,5-(digeranyloxy)-4-hydroxy-2H-1-benzopyran-2-one], `COc1ccc2c(OC/C=C(\C)CCC=C(C)C)c(OC/C=C(\C)CCC=C(C)C)c(=O)oc2c1` [Compound 43, 3,4-(digeranyloxy)-7-(methoxy)-2H-1-benzopyran-2-one] is lower in inhibition in vivo at 10 mg/kg: 33% for the first, 30% for the second.

`CC(=O)Oc1c(OC(=O)c2ccccc2)c(=O)oc2c(OC/C=C(\C)CCC=C(C)C)cccc12` [Compound 161, 3-(benzoyloxy)-4-(acetoxy)-8-(geranyloxy)-2H-1-benzopyran-2-one] was tested, and the inhibition in vivo at 10 mg/kg was 31%.
